According to ChEMBL document CHEMBL1201862, “PubChem BioAssay data set” (2004):
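Growth conditions: 96-well plates. Treatment: test compound, 48 hours, 5 concentrations. Analysis: linear interpolation between bracketing concentrations; unreached endpoints set to highest concentration. At the GI50, growth is halved.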 Activity calls are given as the source filed them. Cut-off read from the data, not from the text of the source: active = GI50 up to about 1.1 µM and inactive = higher.

Assays:
Experiment in all cases: inhibition of tumour cell growth, NCI panel, 48 h
[1] = system: BT-549
[2] = system: HOP-18
[3] = system: DMS-273
[4] = system: RXF 631
[5] = system: M19-MEL
[6] = system: KM-20L2
[7] = system: DMS-114
[8] = system: DLD-1
[9] = system: XF498

SMILES	GI50 [1]	GI50 [3]	GI50 [5]	GI50 [6]	GI50 [7]	also measured
O=[N+]([O-])C1CC/C(=N/O)c2nonc21 (stereo not given)	> 10 µM (inactive)					
CC(=O)n1c(=O)c2cc3c(=O)n(-c4cccc(C#N)c4)c(=O)c3cc2c1=O		88.1 µM (inactive)	> 100 µM (inactive)	> 100 µM (inactive)	> 100 µM (inactive)	GI50 [2]: > 100 µM (inactive); GI50 [4]: > 100 µM (inactive); GI50 [8]: > 100 µM (inactive)
Cc1cc(C)n2c(-c3ccccc3)c(C)cc2n1		27.5 µM (inactive)	30.2 µM (inactive)	29 µM (inactive)	23.8 µM (inactive)	GI50 [2]: > 100 µM (inactive); GI50 [4]: 43.6 µM (inactive); GI50 [8]: 42.3 µM (inactive)
OC(CCN1CCN(CCOC(c2ccc(F)cc2)c2ccc(F)cc2)CC1)c1ccccc1 (stereo not given)	14.1 µM (inactive)					
O=C(NN1C(=O)C(Cl)C1c1ccccc1Cl)c1ccccc1O (stereo not given)			> 100 µM (inactive)		70 µM (inactive)	GI50 [2]: > 100 µM (inactive); GI50 [9]: 32.7 µM (inactive); GI50 [8]: > 100 µM (inactive)
Cc1ccc2nc(/C=N/c3ccc(Cl)cc3)cc(C)c2c1	13.9 µM (inactive)					
O=[N+]([O-])C1C2C=CC(C2)[C@H]1c1ccco1 (stereo not given in full)		> 100 µM (inactive)	> 100 µM (inactive)	> 100 µM (inactive)	> 100 µM (inactive)	GI50 [9]: > 100 µM (inactive); GI50 [8]: > 100 µM (inactive)
CCCCCNC(=O)c1cc2cc(CCl)ccc2oc1=O	6.49 µM (inactive)					
Cn1c(O)c(C(=O)Nc2cccs2)c(=O)[nH]c1=S			19.1 µM (inactive)	19.7 µM (inactive)	14.5 µM (inactive)	GI50 [2]: 0.0865 µM (active); GI50 [8]: 21.2 µM (inactive)
CCOC(=O)/C=C(/C(=O)OCC)n1cc(C)c(=O)[nH]c1=O	10.3 µM (inactive)					
COc1ccc(-c2cc(=O)c3c(O)cccc3o2)c(OC)c1OC		13.7 µM (inactive)	> 100 µM (inactive)	> 100 µM (inactive)	18.6 µM (inactive)	GI50 [4]: 66.8 µM (inactive); GI50 [9]: 65.6 µM (inactive); GI50 [8]: > 100 µM (inactive)
CCCC1c2c(ccc3ccccc23)Oc2ccc3ccccc3c21	> 100 µM (inactive)					
NNc1nnc(CCCCCCCCc2nnc(NN)n2N)n1N	26.1 µM (inactive)					
COc1ccc(-c2nc(-c3cnccn3)n(C3OC(CO)C(O)C(O)C3O)n2)cc1 (stereo not given)	> 100 µM (inactive)					
CCOC(=O)C1CCC(=O)N1C(=O)c1ccc(Cl)cc1 (stereo not given)	> 100 µM (inactive)					
c1ccc(C2SCC3=Nc4ccccc4CN32)cc1 (stereo not given)	> 100 µM (inactive)					
Cc1ccc(NC(=O)c2ccc(OP(=O)(O)Nc3ccc(C)cc3)cc2)cc1	> 100 µM (inactive)					
Cc1nn(-c2ccccc2)c(-c2ccccc2[N+](=O)[O-])c1CC#N		> 100 µM (inactive)	> 100 µM (inactive)	> 100 µM (inactive)	98.6 µM (inactive)	GI50 [4]: > 100 µM (inactive); GI50 [9]: 21.5 µM (inactive)
CS(=O)(=O)C1(Br)S(=O)(=O)OCCOS1(=O)=O		> 100 µM (inactive)	> 100 µM (inactive)	> 100 µM (inactive)	> 100 µM (inactive)	GI50 [9]: > 100 µM (inactive); GI50 [8]: > 100 µM (inactive)
Cc1cc(O)nc(NN2C(Cl)C(=O)C2c2ccc(O)cc2)n1 (stereo not given)	9.1 µM (inactive)	5.32 µM (inactive)	10.5 µM (inactive)	18.7 µM (inactive)	7.35 µM (inactive)	GI50 [2]: 14.6 µM (inactive)
COc1ccc2c(c1)c1c(n2CCN(C)C)-c2cccc(OC)c2CC1	20 µM (inactive)					
c1ccc(COc2ccc3[nH]c4c5c6ccccc6nc-5c[nH]c4c3c2)cc1		16.6 µM (inactive)		8.02 µM (inactive)	16.6 µM (inactive)	GI50 [2]: 13.2 µM (inactive); GI50 [9]: 13.7 µM (inactive); GI50 [8]: 12.4 µM (inactive)

SMILES	GI50 [1]	GI50 [3]	GI50 [5]	GI50 [6]	GI50 [7]	also measured
CCCCCCOc1ccc(NC2=C(Cl)C(=O)c3cccnc3C2=O)cc1	3.22 µM (inactive)					
CC(C)=CC1C(C(=O)Oc2ccccc2C(C)C)C1(C)C (stereo not given)	30 µM (inactive)					
COc1ccc2[nH]c(Cl)c(/C=C3/C(=O)N(c4ccccc4)c4ccccc43)c2c1	2.67 µM (inactive)					
CSc1nc2nccnc2c(=O)[nH]1		> 100 µM (inactive)	> 100 µM (inactive)	> 100 µM (inactive)	> 100 µM (inactive)	GI50 [2]: > 100 µM (inactive); GI50 [9]: > 100 µM (inactive); GI50 [8]: > 100 µM (inactive)
Cc1ccc(NC(=S)C#N)cc1Cl	53 µM (inactive)					
COc1cc2c3c4[n+](cc2c(OC)c1OC)CCC4CCC3 (stereo not given)	> 100 µM (inactive)					
COc1ccc(-c2oc(/C=N/c3ccccc3)c([N+](=O)[O-])c2-c2ccc(OC)c(OC)c2)cc1OC		> 100 µM (inactive)	> 100 µM (inactive)	> 100 µM (inactive)	> 100 µM (inactive)	GI50 [9]: > 100 µM (inactive); GI50 [8]: > 100 µM (inactive)
Cc1c2c(c(C)n1-c1ccccc1)C(=O)N(CCN1CCN(c3cccc(C(F)(F)F)c3)CC1)C2=O	> 100 µM (inactive)					
CC1CCC2(NC1)OC1CC3[C@@H]4CC=C5C=CCC[C@]5(C)C4CC[C@]3(C)C1C2C (stereo not given in full)		> 10 µM (inactive)	33.9 µM (inactive)	17.9 µM (inactive)	20.8 µM (inactive)	GI50 [2]: 32.2 µM (inactive); GI50 [9]: 17.6 µM (inactive); GI50 [8]: 23.3 µM (inactive)
CCCCn1c2c(n(CCCC)c1=S)-c1c(n(CCCC)c(=S)n1CCCC)SSc1c(n(CCCC)c(=S)n1CCCC)-c1c(n(CCCC)c(=S)n1CCCC)SSc1c(n(CCCC)c(=S)n1CCCC)-c1c(n(CCCC)c(=S)n1CCCC)SS2	3.55 µM (inactive)					
N#CC(Cl)CS(=O)(=O)c1ccccc1 (stereo not given)	16.7 µM (inactive)		15.8 µM (inactive)	18.7 µM (inactive)	4.11 µM (inactive)	GI50 [2]: 8.61 µM (inactive); GI50 [9]: 2.62 µM (inactive); GI50 [8]: 1.93 µM (inactive)
COC(=O)C1Cc2c([nH]c3ccccc23)[C@H](CC(C)C)N1 (stereo not given in full)		> 100 µM (inactive)	> 100 µM (inactive)	> 100 µM (inactive)	> 100 µM (inactive)	GI50 [2]: > 100 µM (inactive); GI50 [9]: > 100 µM (inactive); GI50 [8]: > 100 µM (inactive)
COc1cc(-c2nn3c(=O)n(-c4ccc(Cl)cc4)c(=O)nc3s2)cc(OC)c1OC		23.2 µM (inactive)	> 100 µM (inactive)	> 100 µM (inactive)		GI50 [2]: 57 µM (inactive); GI50 [4]: 48.1 µM (inactive); GI50 [8]: > 86.9 µM (inactive)
N#Cc1cc(Sc2ccc(N)c(C#N)c2)ccc1N	19 µM (inactive)					
CC1=NN(c2ccccc2)C(=O)C1C(=O)C(=O)Nc1ccc(C)cc1C (stereo not given)		> 100 µM (inactive)	> 100 µM (inactive)	> 100 µM (inactive)	> 100 µM (inactive)	GI50 [2]: > 100 µM (inactive); GI50 [8]: > 100 µM (inactive)
COc1c(C)c(C/C=C(\C)CCCC(C)CCCC(C)CCCC(C)C)c(OC)c2ccccc12 (stereo not given)	> 100 µM (inactive)					
Cc1cc(C)c2c(O)cc(-c3ccc4ccccc4c3)nc2n1	40.5 µM (inactive)					
COc1cc(-c2cc(=O)c3ccccc3o2)ccc1N		50.2 µM (inactive)	> 100 µM (inactive)	49.5 µM (inactive)	63.5 µM (inactive)	GI50 [2]: 27.5 µM (inactive); GI50 [9]: 24 µM (inactive)
Cc1cc2c(cc1C)C(=O)C1(C2)Cc2c(ccc(C)c2C)C1=O (stereo not given)	> 100 µM (inactive)					
C=C(C)[C@@H](C(=O)OC)N1C(=O)c2ccccc2C1=O	> 100 µM (inactive)					
COC(=O)/C=C(/C)n1nc2ccccc2n1	> 100 µM (inactive)					
OC(COc1ccccc1)CN1CCCCC1 (stereo not given)	> 100 µM (inactive)					

SMILES	GI50 [1]	GI50 [3]	GI50 [5]	GI50 [6]	GI50 [7]	also measured
OCCNCO		> 100 µM (inactive)	> 100 µM (inactive)	> 100 µM (inactive)		GI50 [9]: > 100 µM (inactive)
c1ccc(/C(=N/Nc2cnccn2)c2ncccn2)cc1	> 100 µM (inactive)					
COc1cc2c(c(OC3OC(CO)C(O)C(O)C3O)c1)C(=O)CC(c1ccc(O)cc1)O2 (stereo not given)	> 100 µM (inactive)					
C=C1C(=O)OC2CC(C)C(/C=C/C(C)=O)=CCC12 (stereo not given)	> 100 µM (inactive)					
COC(=O)C(/C(=N/NC(N)=O)C(=O)Nc1c(C)cccc1C(C)(C)C)c1nc2ccc(Cl)cc2nc1O (stereo not given)		> 100 µM (inactive)	> 100 µM (inactive)	> 100 µM (inactive)	> 100 µM (inactive)	GI50 [2]: > 100 µM (inactive); GI50 [9]: > 100 µM (inactive); GI50 [8]: > 100 µM (inactive)
N#CC(C#N)=C(N)/C(C#N)=C\c1ccnc2ccccc12		17.3 µM (inactive)	19 µM (inactive)		16.8 µM (inactive)	GI50 [2]: > 100 µM (inactive); GI50 [9]: 30.1 µM (inactive); GI50 [8]: 5.71 µM (inactive)
O=C(NCC(O)COc1ccccc1)c1ccccc1O (stereo not given)	27.7 µM (inactive)					
c1ccc(CCN2CCOCC2)nc1	> 100 µM (inactive)					
N#Cc1ccc2oc3ccc(C#N)cc3c(=O)c2c1	25.5 µM (inactive)					
COc1cc(CSc2ccc(O)cc2)cc(OC)c1OC	16.4 µM (inactive)					
CO/N=C(/C(=O)Nc1c[n+](CC(=O)[O-])cs1)c1csc(N)n1		> 100 µM (inactive)		> 100 µM (inactive)		GI50 [2]: > 100 µM (inactive); GI50 [9]: > 100 µM (inactive); GI50 [8]: > 100 µM (inactive)
CCCCc1c2c(nc3c1CCC/C3=C\c1ccccc1)C(=O)CCC2		26.1 µM (inactive)	18.2 µM (inactive)	22.6 µM (inactive)	20.7 µM (inactive)	GI50 [2]: 25.6 µM (inactive); GI50 [9]: 12.1 µM (inactive)
CC1(C)C2CC(=O)C1(C)C(OCc1ccccc1)C2 (stereo not given)	54.6 µM (inactive)					
c1cncc(CSc2nc3ccccc3nc2-c2cccs2)c1		> 100 µM (inactive)	> 100 µM (inactive)			GI50 [2]: > 100 µM (inactive); GI50 [9]: 35.3 µM (inactive); GI50 [8]: > 100 µM (inactive)
CCC(=O)C(C(=O)CC)c1c(OC(=O)c2ccccc2)ccc(O)c1C(=O)OC		> 100 µM (inactive)	> 100 µM (inactive)	> 100 µM (inactive)		GI50 [4]: > 100 µM (inactive); GI50 [9]: > 100 µM (inactive)
Cc1ccnc2nc(-c3cccc(Cl)c3)cc(O)c12	1.65 µM (inactive)					
Cn1c(=O)cc(NCCc2ccccc2)[nH]c1=O	47.8 µM (inactive)					
COC(=O)c1c(O)ccc2c1c1c(n2Cc2ccc(OC)cc2)C(=O)c2ccccc2C1	> 100 µM (inactive)					
CC(C)(/N=N/C(C)(C)C(=N)N)C(=N)N	> 100 µM (inactive)					
Cc1ccc(S(=O)(=O)NC(=O)C2=C3SCCN3C(=O)N(S(=O)(=O)c3ccc(C)cc3)C2c2ccccc2)cc1 (stereo not given)	> 100 µM (inactive)					
